In paper PMC9518248, “Inhibition of Toxoplasma gondii by 1,2,4-triazole-based compounds: marked improvement in selectivity relative to the standard therapy pyrimethamine and sulfadiazine” (Journal of Enzyme Inhibition and Medicinal Chemistry, 2022):
Converted amounts (≈) assume the structure as drawn. Read-outs that look alike come from different tables or passages of the source.

Assays:
[1] = tested on: mouse fibroblasts L929 cells; set-up: method as in PMID 31022878, PMID 30744161; conditions: thiosemicarbazides 1a–27a; cited from earlier work
T. gondii RH-GFP [2] = tested on: T. gondii RH-GFP; set-up: method as in PMID 31022878, PMID 30744161; conditions: thiosemicarbazides 1a–27a, cited from earlier work; for SI: CC30/IC50Tg; for IC50Tg: T. gondii infected Hs27 cells
[3] = tested on: mouse fibroblasts L929 cells; assay: Cell viability assay (MTT, ISO 10993-5); format: cell-based; conditions: 24 h, highest dilution causing 30% or higher destruction of cells
Method: Culture medium RPMI 1640, without phenol red (Biowest, Nuaille, France) supplemented with 10% FBS, 2 mM […] penicillin, 100 μg/mL streptomycin were used. Briefly, 1 × 10^4/well of L929 cells were placed in 96-well plates and incubated for 24 h at 37 °C and 10% CO2. Afterwards, the old culture medium was replaced with 100 μL of the compound, drug or inhibitor, diluted in culture medium and the cells treated for 24 h. Additionally, cells were treated with 0.03-4.0% concentration of DMSO as the solvent (data not shown). Then, 50 μL of 1 mg/mL of MTT solution in RPMI 1640 without phenol red was added to each well and incubated for 2 h at 37 °C and 10% CO2. Next, cell culture medium was aspirated carefully and 150 μL of DMSO was added to each well, and the plates were gently mixed. Then, 25 μL 0.1 M glycine buffer (pH 10.5) (Sigma-Aldrich) was added. The optical density at 570 nm using a multi-mode microplate reader SpectraMax® i3 (Syngen, Taipei City, Taiwan) was recorded. The results were expressed as a percentage of viability compared to untreated cells. All experiments were performed in triplicate. The reported methyl thiazolyltetrazole (MTT) method was used to study in vitro cytotoxic profile of the s-triazoles 1b-27b to the host cells (L929). Experiments were performed in accordance with the international standard IS0-10993-5:2009. […] The data for acyclic precursors 1a-27a are also included for comparison[39]^,[40].

T. gondii RH-GFP [4] = assay: Antiparasitic assay: T. gondii RH-GFP proliferation in Hs27 cells; format: cell-based, Toxoplasma gondii; conditions: for IC50: Toxoplasma gondii, read-out: IC50Tg; for SI: selectivity index, CC30 (L929)/IC50Tg
[5] = T. gondii RH-GFP in Hs27 cells, 96 h, values above highest tested concentration extrapolated

| Structure (SMILES) | CC30 [1] | SI (T. gondii RH-GFP [2]) | IC50Tg (T. gondii RH-GFP [2]) | CC30 [3] | IC50 (T. gondii RH-GFP [4]; [5]) | SI (T. gondii RH-GFP [4]) | melting point | IC50 (T. gondii RH-GFP [4]; HS27, 96 h) |
| --- | --- | --- | --- | --- | --- | --- | --- | --- |
| Cc1nc[nH]c1C(=O)NNC(=S)Nc1ccccc1F [1a] | 289.6 µg/mL (≈ 987 µM) | 4.21 | 68.83 µg/mL (≈ 235 µM) | – | – | – | – | – |
| Cc1nc[nH]c1-c1n[nH]c(=S)n1-c1ccccc1F [1b] | – | – | – | 1270.57 µg/mL (≈ 4620 µM) | 220 µg/mL (≈ 799 µM) | 5.78 | – | – |
| Cc1nc[nH]c1C(=O)NNC(=S)Nc1cccc(F)c1 [2a] | 125.17 µg/mL (≈ 427 µM) | 1.10 | 113.45 µg/mL (≈ 387 µM) | – | – | – | – | – |
| Cc1nc[nH]c1-c1n[nH]c(=S)n1-c1cccc(F)c1 [2b, 4–(3-fluorophenyl)-5–(4-methylimidazol-5-yl)-1,2,4-triazole-3-thione] | – | – | – | – | 103 µg/mL (≈ 374 µM) | 24.26 | 284 °C | – |
| Cc1nc[nH]c1C(=O)NNC(=S)Nc1ccc(F)cc1 [3a] | 266.01 µg/mL (≈ 907 µM) | 2.41 | 110.31 µg/mL (≈ 376 µM) | – | – | – | – | – |
| Cc1nc[nH]c1-c1n[nH]c(=S)n1-c1ccc(F)cc1 [3b] | – | – | – | 113.71 µg/mL (≈ 413 µM) | 206 µg/mL (≈ 748 µM) | 0.55 | – | – |
| Cc1nc[nH]c1C(=O)NNC(=S)Nc1ccccc1Cl [4a] | 143.15 µg/mL (≈ 462 µM) | 4.02 | 35.61 µg/mL (≈ 115 µM) | – | – | – | – | – |
| Cc1nc[nH]c1-c1n[nH]c(=S)n1-c1ccccc1Cl [4b, 4–(2-chlorophenyl)-5–(4-methylimidazol-5-yl)-1,2,4-triazole-3-thione] | – | – | – | 698.23 µg/mL (≈ 2390 µM) | 345 µg/mL (≈ 1180 µM) | 2.03 | 243.4 °C | – |
| Cc1nc[nH]c1C(=O)NNC(=S)Nc1cccc(Cl)c1 [5a] | 96.78 µg/mL (≈ 312 µM) | – | 25.70 µg/mL (≈ 83 µM) | – | – | – | – | – |
| Cc1nc[nH]c1-c1n[nH]c(=S)n1-c1cccc(Cl)c1 [5b, 4–(3-chlorophenyl)-5–(4-methylimidazol-5-yl)-1,2,4-triazole-3-thione] | – | – | – | 721.27 µg/mL (≈ 2470 µM) | 310 µg/mL (≈ 1060 µM) | 2.32 | 297.8 °C | – |
| Cc1nc[nH]c1C(=O)NNC(=S)Nc1ccc(Cl)cc1 [6a] | 94.12 µg/mL (≈ 304 µM) | 1.28 | 73.37 µg/mL (≈ 237 µM) | – | – | – | – | – |
| Cc1nc[nH]c1C(=O)NNC(=S)Nc1ccccc1Br [7a] | 205.31 µg/mL (≈ 580 µM) | 7.43 | 27.65 µg/mL (≈ 78.1 µM) | – | – | – | – | – |
| Cc1nc[nH]c1C(=O)NNC(=S)Nc1cccc(Br)c1 [8a] | 96.12 µg/mL (≈ 271 µM) | 6.15 | 15.64 µg/mL (≈ 44.2 µM) | – | – | – | – | – |
| Cc1nc[nH]c1C(=O)NNC(=S)Nc1ccc(Br)cc1 [9a] | 48.89 µg/mL (≈ 138 µM) | 3.36 | 14.57 µg/mL (≈ 41.1 µM) | – | – | – | – | – |
| Cc1nc[nH]c1C(=O)NNC(=S)Nc1ccccc1I [10a] | 101.58 µg/mL (≈ 253 µM) | 5.00 | 20.31 µg/mL (≈ 50.6 µM) | – | – | – | – | – |
| Cc1nc[nH]c1C(=O)NNC(=S)Nc1cccc(I)c1 [11a] | 85.57 µg/mL (≈ 213 µM) | 8.31 | 10.3 µg/mL (≈ 25.7 µM) | – | – | – | – | – |
| Cc1nc[nH]c1C(=O)NNC(=S)Nc1ccc(I)cc1 [12a] | 71.58 µg/mL (≈ 178 µM) | 3.25 | 22.01 µg/mL (≈ 54.9 µM) | – | – | – | – | – |
| Cc1nc[nH]c1C(=O)NNC(=S)Nc1cc(F)ccc1F [13a] | 158.49 µg/mL (≈ 509 µM) | 2.95 | 53.7 µg/mL (≈ 172 µM) | – | – | – | – | – |
| Cc1nc[nH]c1-c1n[nH]c(=S)n1-c1cc(F)ccc1F [13b, 4–(2,5-difluorophenyl)-5–(4-methylimidazol-5-yl)-1,2,4-triazole-3-thione] | – | – | – | – | 224 µg/mL (≈ 765 µM) | 11.14 | 253.9 °C | – |
| Cc1ccccc1NC(=S)NNC(=O)c1[nH]cnc1C [14a] | 288.4 µg/mL (≈ 997 µM) | 1.92 | ∼150.31 µg/mL | – | – | – | – | – |

| Structure (SMILES) | CC30 [1] | SI (T. gondii RH-GFP [2]) | IC50Tg (T. gondii RH-GFP [2]) | CC30 [3] | IC50 (T. gondii RH-GFP [4]; [5]) | SI (T. gondii RH-GFP [4]) | melting point | IC50 (T. gondii RH-GFP [4]; HS27, 96 h) |
| --- | --- | --- | --- | --- | --- | --- | --- | --- |
| Cc1cccc(NC(=S)NNC(=O)c2[nH]cnc2C)c1 [15a] | 50.12 µg/mL (≈ 173 µM) | 1.35 | 37.15 µg/mL (≈ 128 µM) | – | – | – | – | – |
| Cc1ccc(NC(=S)NNC(=O)c2[nH]cnc2C)cc1 [16a] | 34.67 µg/mL (≈ 120 µM) | 0.60 | ∼57.58 µg/mL | – | – | – | – | – |
| Cc1ccc(-n2c(-c3[nH]cnc3C)n[nH]c2=S)cc1 [16b] | – | – | – | 1113.53 µg/mL (≈ 4100 µM) | 110 µg/mL (≈ 406 µM) | 10.11 | – | – |
| Cc1ccc(NC(=S)NNC(=O)c2[nH]cnc2C)cc1Cl [17a] | 28.18 µg/mL (≈ 87 µM) | 1.51 | 18.62 µg/mL (≈ 57.5 µM) | – | – | – | – | – |
| COc1ccccc1NC(=S)NNC(=O)c1[nH]cnc1C [18a] | 138.04 µg/mL (≈ 452 µM) | 4.17 | 33.11 µg/mL (≈ 108 µM) | – | – | – | – | – |
| COc1ccccc1-n1c(-c2[nH]cnc2C)n[nH]c1=S [18b, 4–(2-methoxyphenyl)-5–(4-methylimidazol-5-yl)-1,2,4-triazole-3-thione] | – | – | – | – | 93.2 µg/mL (≈ 324 µM) | – | 145.2 °C | – |
| COc1cccc(NC(=S)NNC(=O)c2[nH]cnc2C)c1 [19a] | 165.96 µg/mL (≈ 543 µM) | 2.08 | 79.65 µg/mL (≈ 261 µM) | – | – | – | – | – |
| COc1cccc(-n2c(-c3[nH]cnc3C)n[nH]c2=S)c1 [19b, 4–(3-methoxyphenyl)-5–(4-methylimidazol-5-yl)-1,2,4-triazole-3-thione] | – | – | – | – | 96.8 µg/mL (≈ 337 µM) | – | 228.8 °C | – |
| COc1ccc(NC(=S)NNC(=O)c2nc[nH]c2C)cc1 [20a] | 389.05 µg/mL (≈ 1270 µM) | 3.41 | 113.99 µg/mL (≈ 373 µM) | – | – | – | – | – |
| COc1ccc(NC(=S)NNC(=O)c2[nH]cnc2C)cc1OC [21a] | >500 µg/mL | – | ∼174.98 µg/mL | – | – | – | – | – |
| CCOc1ccc(NC(=S)NNC(=O)c2[nH]cnc2C)cc1 [22a] | 500 µg/mL (≈ 1570 µM) | 5.25 | 95.28 µg/mL (≈ 298 µM) | – | – | – | – | – |
| CC(=O)c1cccc(NC(=S)NNC(=O)c2[nH]cnc2C)c1 [23a] | 206.54 µg/mL (≈ 651 µM) | 2.16 | 95.50 µg/mL (≈ 301 µM) | – | – | – | – | – |
| CC(=O)c1cccc(-n2c(-c3[nH]cnc3C)n[nH]c2=S)c1 [23b, 4–(3-acetylphenyl)-5–(4-methylimidazol-5-yl)-1,2,4-triazole-3-thione] | – | – | – | – | 141 µg/mL (≈ 469 µM) | 17.79 | 151.9 °C | – |
| Cc1nc[nH]c1C(=O)NNC(=S)Nc1c(C(C)C)cccc1C(C)C [24a] | 190.55 µg/mL (≈ 530 µM) | 1.95 | 97.72 µg/mL (≈ 272 µM) | – | – | – | – | – |
| Cc1nc[nH]c1C(=O)NNC(=S)Nc1ccc(N(C)C)cc1 [25a] | 112.2 µg/mL (≈ 352 µM) | 0.68 | ∼164.70 µg/mL | – | – | – | – | – |
| CCN(CC)c1ccc(NC(=S)NNC(=O)c2[nH]cnc2C)cc1 [26a] | 63.1 µg/mL (≈ 182 µM) | 2.46 | 25.70 µg/mL (≈ 74.2 µM) | – | – | – | – | – |
| CCc1nc(N)nc(N)c1-c1ccc(Cl)cc1 [PYR, pyrimethamine] | – | – | – | 11.37 µg/mL (≈ 45.7 µM) | 1.79 µg/mL (≈ 7.2 µM) | 6.34 | – | – |
| Nc1ccc(S(=O)(=O)Nc2ncccn2)cc1 [SDZ, sulfadiazine] | – | – | – | 2161.72 µg/mL (≈ 8640 µM) | – | 0.44 | – | 4860 µg/mL (≈ 19400 µM) |
| COc1cc(Cc2cnc(N)nc2N)cc(OC)c1OC [TRI, trimethoprim, reference compound] | – | – | – | 336.20 µg/mL (≈ 1160 µM) | – | 16.07 | – | 20.9 µg/mL (≈ 72.1 µM) |
